Consider 1 molecule from patent publication US20240016875A1, “SHAN-ZHA FOR THE TREATMENT OF DEPRESSION AND ANXIETY DISORDERS” (THE OPEN UNIVERSITY, priority 2020, published 2024).

“Also recorded” adds a separate entry of the source.

A short description of data set [1]: Body weight monitoring, stressed mice. As to conditions: UCMS-stressed mice, Shan-zha and NHT 30 mg/kg, escitalopram 15 mg/kg i.p., 3 weeks, vs vehicle. It counts as in vivo. As for the experimental part:
Crataegus pinnatifida, Triticum aestivum, Lilium brownii and Fructus zizyphi jujuba were purchased as freeze-dried granules (KPC Products, Inc., Irvine, CA, USA). Each herb was dissolved in saline with 1% dimethylsulfoxide (DMSO) to a final concentration of 0.47 mg/ml and injected i.p. individually (30 mg/kg) or with the other components to form the formula (NHT, 30 mg/kg). […] Vehicle treatment included i.p. injection of saline with 1% DMSO. All treatments were carried out for 3 weeks. Mice were weighed every 3 days throughout the treatment period. Change in weight was calculated as final (weight-initial weight)/initial weight×100.

The test system of the next data set is dams. The data set is described as follows: EPM in dams after restrain stress during gestation. It counts as in vivo, mice. Particulars: PND21, 15 mg/kg s.c. daily PND1-PND21. As for the experimental part: The EPM task was performed as previously described. Shortly, each mouse was placed in the center of the maze and video recorded for 5 min. Anxiety-like behavior was expressed as the time the mouse spent in the open, unprotected arms of the maze.
Female (n=40) and male (n=5) ICR outbred mice (100 days old; Envigo RMS, Jerusalem, Israel) were housed at 22±1° C. under 12 h light/dark cycles in the vivarium of the Open University lab in Hadassah medical center, Jerusalem. Mice had ad libitum access to rodent chow and water. Mice were housed in standard cages with a bed of woodchips and a piece of cotton wool for enrichment. All experiments were performed during the dark phase of the cycle. Male mice were used to father pups and were housed apart (5 per cage) from females until mating. […] Once a vaginal plug was identified, the females were transferred to a separate cage until parturition. Overall, 455 pups were delivered of which 317 (male: n=165; female: n=152) were designated for this study. Unassessed pups were maintained with littermates to avoid additional stress and ensure similar conditions. […]
Following mating, dams were separated to individual cages and were observed periodically to ensure onset of pregnancy. […] Shortly after, anxiety-like behavior was assessed on the EPM and dams were assigned to treatment group (escitalopram/shan-zha/vehicle). […]

Take `CN(C)CCC[C@@]1(c2ccc(F)cc2)OCc2cc(C#N)ccc21` [escitalopram]: the weight change entry in data set [1] is listed as “significantly increased weight compared to vehicle”; in data set [1] (listed as Escitalopram), “higher weight gain in comparison with vehicle-treated mice”. Also, the “anxiety-like behavior in the EPM, treated stressed dams vs saline-treated stressed dams” value in the data set on dams (restrain stress during gestation, 15 mg/kg) is “saline-treated stressed dams demonstrated elevated anxiety-like behavior compared to both shan-zha- and escitalopram-treated stressed dams; also recorded: the stress-vehicle group demonstrated increased anxiety-like behavior compared to the naïve-vehicle, stress-escitalopram and stress-shan-zha groups”. Also, in the data set with dams (stressed vs naive dams), the “effect of stress manipulation on time spent in open arms within treatment group, dams” value is “Stress manipulation did not affect time spent in open arms”.
